The term IC50 denotes the concentration needed to halve the response being measured.

Experimental findings from BindingDB's records for doi:10.3109/14756360903389864 (Quaid-I-Azam University, 2010) are described below.

Urease, sequence (P07374 whole entry): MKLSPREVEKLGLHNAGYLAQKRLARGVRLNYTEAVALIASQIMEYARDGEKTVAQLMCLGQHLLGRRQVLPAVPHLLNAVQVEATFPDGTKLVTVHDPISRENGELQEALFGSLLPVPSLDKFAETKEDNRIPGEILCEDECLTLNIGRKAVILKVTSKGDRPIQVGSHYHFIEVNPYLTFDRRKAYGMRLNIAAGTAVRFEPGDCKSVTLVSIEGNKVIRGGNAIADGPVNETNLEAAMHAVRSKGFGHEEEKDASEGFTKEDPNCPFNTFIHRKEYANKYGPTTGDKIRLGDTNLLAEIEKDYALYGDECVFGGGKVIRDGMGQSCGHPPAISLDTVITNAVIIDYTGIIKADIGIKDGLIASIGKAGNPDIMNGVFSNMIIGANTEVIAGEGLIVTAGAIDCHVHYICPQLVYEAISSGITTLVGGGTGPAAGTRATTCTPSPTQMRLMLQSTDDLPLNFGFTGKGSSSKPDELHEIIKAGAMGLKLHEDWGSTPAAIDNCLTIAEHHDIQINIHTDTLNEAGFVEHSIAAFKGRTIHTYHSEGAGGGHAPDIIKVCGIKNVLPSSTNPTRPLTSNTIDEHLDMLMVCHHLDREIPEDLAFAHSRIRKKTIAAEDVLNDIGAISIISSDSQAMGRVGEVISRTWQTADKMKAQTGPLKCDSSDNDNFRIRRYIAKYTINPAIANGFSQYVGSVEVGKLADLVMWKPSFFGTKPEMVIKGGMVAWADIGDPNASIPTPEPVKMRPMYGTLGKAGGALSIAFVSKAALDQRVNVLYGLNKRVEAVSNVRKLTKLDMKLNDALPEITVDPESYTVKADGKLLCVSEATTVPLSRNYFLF

This assay concerns the target Urease (Canavalia ensiformis, UniProt P07374). Briefly: Urease Inhibition Assay.
On to `OC(c1ccccc1)c1n[nH]c(=S)n1-c1ccc(Cl)cc1` (stereo unspecified) [5-(Hydroxybenzyl)-4-(4-chlorophenyl)-2H-1,2,4-triazole-3-thione (5b)], for which the IC50 was found to be 18.9 µM.

Molecule `O=[N+]([O-])c1ccc(-n2c(C(O)c3ccccc3)n[nH]c2=S)cc1` (stereo unspecified) [5-(Hydroxybenzyl)-4-(4-nitrophenyl)-2H-1,2,4-triazole-3-thione (5e)] came in with an IC50 of 132 µM. Compared with the last molecule, the IC50 is about 7-fold higher.

On to `Cc1ccc(-n2c(C(O)c3ccccc3)n[nH]c2=S)cc1` (stereo unspecified) [5-(Hydroxybenzyl)-4-(4-methylphenyl)-2H-1,2,4-triazole-3-thione (5d)], for which the IC50 turned out to be 16.7 µM.

Consider `O=[N+]([O-])c1ccc(Nc2nnc(C(O)c3ccccc3)o2)cc1` (stereo unspecified) [5-(Hydroxybenzyl)-2-(4-nitrophenyl)amino-1,3,4-oxadiazole (4e)], for which it took 80.3 µM to reach half-maximal inhibition (IC50).

As to `OC(c1ccccc1)c1n[nH]c(=S)n1-c1ccc(Br)cc1` (stereo unspecified) [5-(Hydroxybenzyl)-4-(4-bromophenyl)-2H-1,2,4-triazole-3-thione (5a)], the IC50 amounted to 32 µM.

Regarding `Cc1ccc(Nc2nnc(C(O)c3ccccc3)o2)cc1` (stereo unspecified) [5-(Hydroxybenzyl)-2-(4-methylphenyl)amino-1,3,4-oxadiazole (4d)], half-maximal inhibition (IC50) was put at 16.1 µM.
